Experimental data taken from paper PMC9995496, “A screen for MeCP2-TBL1 interaction inhibitors using a luminescence-based assay” (Scientific Reports, 2023).
Counter-ions that a name gives are not always drawn.

Each compound was assayed on PRKACA-PRKAR2A interaction (SmBiT-PRKACA / LgBiT-PRKAR2A), protein kinase A. Settings: counter-screen for NanoLuc interference, 0.5 h, 20 µM, inhibitor, Inh (PKA).
Design: NanoLuc complementation counter-screen in cell extract, PRKACA with PRKAR2A, loss of luminescence, detects NanoLuc interference

| Structure (SMILES) | Inh (PKA) [%] |
| --- | --- |
| Oc1cccc(-c2nc(N3CCOCC3)c3oc4ncccc4c3n2)c1 [UM0127905:03, PI-103] | 4.016 |
| C[S+]([O-])c1ccc(-c2nc(-c3ccc(F)cc3)c(-c3ccncc3)[nH]2)cc1 (stereo not shown) [UM0127917:04, SB 203580] | 16.51 |
| C#Cc1cccc(Nc2ncnc3cc(OCCOC)c(OCCOC)cc23)c1 [UM0127944:02, Erlotinib] | 7.481 |

Same assay, conditions: counter-screen for NanoLuc interference; 0.5 h, 20 µM; inhibitor

| Structure (SMILES) | Inh (PKA) [%] |
| --- | --- |
| O=S(=O)(c1cccc2c(I)cccc12)N1CCCNCC1 [UM0119920:03, ML-7 hydrochloride] | 17.89 |
| COc1ccc2c(c1)c(CC(=O)N1CCOCC1)c(C)n2C(=O)c1ccc(Cl)cc1 [UM0119946:02, BML-190] | 40.28 |
| Nc1nnc(-c2cccc(Cl)c2Cl)c(N)n1 [UM0119947:03, Lamotrigine] | 0.956 |
| COc1cc2c(cc1O)CC[C@@H]1[C@@H]2CC[C@]2(C)[C@@H](O)CC[C@@H]12 [UM0119979:04, 2-Methoxyestradiol (2-MeOE2)] | 12.97 |
| NC(=O)c1ncn([C@@H]2O[C@H](CO)[C@@H](O)[C@H]2O)c1O [UM0119983:03, Mizoribine] | -0.2089 |
| CSC(=N)N [UM0119990:03, (S)-Methylisothiourea sulfate] | -0.9184 |
| O=[N+]([O-])c1cccc2cn[nH]c12 [UM0120050:03, 7-Nitroindazole] | 2.182 |
| CC(C)N(CCC(=O)c1ccc2ccccc2c1)Cc1ccccc1 [UM0120052:04, ZM 39923 HCl] | 18.59 |
| CNC[C@H](O)c1cccc(O)c1 [UM0120096:03, Phenylephrine HCl] | 0.7851 |
| S=C(S)N1CCCC1 [UM0120164:03, Pyrrolidinedithiocarbamate ammonium] | 13.75 |
| NCCS(=O)(=O)O [UM0120232:03, Taurine] | -1.533 |
| N#CC(C#N)=Cc1ccc(O)c(O)c1 [UM0120250:03, AG-18] | 48.6 |
| CC(C)(C)c1cc(C=C(C#N)C#N)cc(C(C)(C)C)c1O [UM0120315:03, Tyrphostin 9] | 80.34 |
| Nc1nccs1 [UM0120610:02, Aminothiazole] | 1.156 |
| O=c1oc2cc(O)ccc2s1 [UM0120621:02, Tioxolone] | 1.741 |
| N[C@@H](CCC(=O)N[C@@H](CS)C(=O)NCC(=O)O)C(=O)O [UM0120654:03, L-Glutathione Reduced] | -0.7865 |
| O=C(O)c1cc(O)c(O)c(O)c1 [UM0120666:03, Gallic acid] | -0.4526 |
| Cc1cc(O)c2c(c1)C(=O)c1cccc(O)c1C2=O [UM0121046:03, Chrysophanol] | 14.51 |
| CN(C)CCC[C@@]1(c2ccc(F)cc2)OCc2cc(C#N)ccc21 [UM0121246:02, Escitalopram Oxalate] | -0.3205 |
| CCC(=O)NCC[C@@H]1CCc2ccc3c(c21)CCO3 [UM0121254:03, Ramelteon] | 6.005 |
| COc1ccnc(C[S+]([O-])c2nc3cc(OC(F)F)ccc3[nH]2)c1OC (stereo not shown) [UM0121277:03, Pantoprazole] | -0.2371 |

| Structure (SMILES) | Inh (PKA) [%] |
| --- | --- |
| Cc1ccc(-c2cc(C(F)(F)F)nn2-c2ccc(S(N)(=O)=O)cc2)cc1 [UM0121289:03, Celecoxib] | 16.21 |
| Cc1onc(-c2ccccc2)c1-c1ccc(S(N)(=O)=O)cc1 [UM0121300:03, Valdecoxib] | 9.885 |
| CN(CCOc1ccc(CC2SC(=O)NC2=O)cc1)c1ccccn1 (stereo not shown) [UM0121306:03, Rosiglitazone] | 12.71 |
| CN(C)CCc1c[nH]c2ccc(C[C@H]3COC(=O)N3)cc12 [UM0121308:03, Zolmitriptan] | -0.4605 |
| CCOC(=O)[C@H](CCc1ccccc1)N[C@H]1CCc2ccccc2N(CC(=O)O)C1=O [UM0121340:03, Benazepril HCl] | -0.4329 |
| O=C(O)CC(O)(CC(=O)O)C(=O)O [UM0121350:03, Lithium Citrate] | -1.116 |
| Oc1c(Cl)cc(Cl)c(Cl)c1Cc1c(O)c(Cl)cc(Cl)c1Cl [UM0121388:04, Hexachlorophene] | 52.78 |
| CC[C@H]1OC(=O)[C@H](C)[C@@H](O[C@H]2C[C@@](C)(OC)[C@@H](O)[C@H](C)O2)[C@H](C)[C@@H](O[C@@H]2O[C@H](C)C[C@H](N(C)C)[C@H]2O)[C@](C)(O)C[C@@H](C)CN(C)[C@H](C)[C@@H](O)[C@]1(C)O [UM0121404:03, Azithromycin] | 0.6112 |
| CC[C@H]1OC(=O)[C@H](C)[C@@H](O[C@H]2C[C@@](C)(OC)[C@@H](O)[C@H](C)O2)[C@H](C)[C@@H](O[C@@H]2O[C@H](C)C[C@H](N(C)C)[C@H]2O)[C@](C)(OC)C[C@@H](C)C(=O)[C@H](C)[C@@H](O)[C@]1(C)O [UM0121462:03, Clarithromycin] | 0.9252 |
| COC(=O)N[C@H](C(=O)N1CCC[C@H]1c1ncc(-c2ccc(-c3ccc(-c4cnc([C@@H]5CCCN5C(=O)[C@@H](NC(=O)OC)C(C)C)[nH]4)cc3)cc2)[nH]1)C(C)C [UM0125917:02, Daclatasvir (BMS-790052)] | 3.854 |
| O=c1cc(-c2cccc3c2Sc2ccccc2S3)oc(N2CCOCC2)c1 [UM0127803:03, KU 55933] | 14.3 |
| CC(C)(C)c1cc(C=C(C#N)C#N)cc(Br)c1O [UM0127805:02, AG-1024] | 81.26 |
| O=c1[nH]c2ccccc2n1C1CCN(Cc2ccc(-c3[nH]c4cc5ncnc5cc4nc3-c3ccccc3)cc2)CC1 [UM0127809:02, AKT inhibitor VIII] | 16.69 |
| c1cc(-c2cnn3cc(-c4ccc(OCCN5CCCCC5)cc4)cnc23)ccn1 [UM0127814:02, Dorsomorphin] | 19.2 |
| CN(C)CCCn1cc(C2=C(c3c[nH]c4ccccc34)C(=O)NC2=O)c2ccccc21 [UM0127819:02, GF 109203X] | 67.69 |
| NC(=O)c1ccc(-c2nc(-c3ccc4c(c3)OCCO4)c(-c3ccccn3)[nH]2)cc1 [UM0127827:02, D4476] | 37.52 |
| COc1ccc(CNc2nc(N(CCO)CCO)nc3c2ncn3C(C)C)cc1 [UM0127838:02, CVT-313] | 6.845 |
| Nc1[nH]nc2nnc(-c3c(-c4ccccc4)nn4ccccc34)cc12 [UM0127848:03, FR 180204] | 1.354 |
| COc1ccc(C(=O)Nc2sc3c(c2C(N)=O)CCCC3)cc1OC [UM0127852:02, TCS 359] | 19.65 |
| COc1ccc(COc2ccc(Cc3cnc(N)nc3N)cc2OC)cc1 [UM0127855:02, GW2580] | 7.237 |
| Cn1sc(=O)n(Cc2ccccc2)c1=O [UM0127856:02, TDZD-8] | 41.7 |

| Structure (SMILES) | Inh (PKA) [%] |
| --- | --- |
| COc1ccc(CNC(=O)Nc2ncc([N+](=O)[O-])s2)cc1 [UM0127858:02, AR-A014418] | 66.01 |
| Nc1cccc(-c2cc3c(Oc4cccc(O)c4)ncnc3[nH]2)c1 [UM0127862:03, TWS119] | 24.46 |
| COc1ccc2c(c1)c(C1=C(c3c[nH]c4ccccc34)C(=O)NC1=O)cn2CCCN(C)C [UM0127865:02, Go 6983] | 49.99 |
| NC(=O)Nc1sc(-c2ccc(F)cc2)cc1C(N)=O [UM0127870:03, TPCA-1] | 19.86 |
| COc1ccc(Cl)cc1NC(=O)Nc1cc(C)nc2ccccc12 [UM0127873:03, PQ 401] | 19.94 |
| O=C(Nc1nc2ccccc2n1CCN1CCOCC1)c1cccc([N+](=O)[O-])c1 [UM0127874:03, IRAK-1-4 Inhibitor I] | 12.44 |
| CC(C)(C)c1nc2c3cc[nH]c(=O)c3c3cc(F)ccc3c2[nH]1 [UM0127875:02, Pyridone 6] | 10.77 |
| COc1cc2ncnc(Nc3ccc(O)c(Br)c3)c2cc1OC [UM0127876:02, WHI-P154] | 9.14 |
| O=c1cc(N2CCOCC2)oc2c(-c3ccccc3)cccc12 [UM0127884:02, LY 294002] | 0.5276 |
| N#C/C(=C(/N)Sc1ccc(N)cc1)c1ccccc1C(F)(F)F [UM0127888:02, SL-327] | 49.94 |
| Cc1[nH]c(/C=C2\C(=O)Nc3ccc(S(=O)(=O)N(C)c4cccc(Cl)c4)cc32)c(C)c1C(=O)N1CCN(C)CC1 [UM0127889:02, SU11274] | 71.51 |
| Nc1ncnc2n[nH]c(Nc3ccc(F)cc3)c12 [UM0127890:04, CGP 57380] | 5.777 |
| Nc1ccc2ncnc(NCCc3ccc(Oc4ccccc4)cc3)c2c1 [UM0127892:02, QNZ (EVP4593)] | 24.11 |
| COc1cccc(-c2cc(=O)c3ccccc3o2)c1N [UM0127895:04, PD98059] | 12.91 |
| c1ccc(-c2[nH]ncc2-c2ccnc3ccccc23)nc1 [UM0127931:02, LY364947] | 7.119 |
| N#C/C(=C\c1ccc(O)c(O)c1)C(=O)NCc1ccccc1 [UM0127932:03, AG-490] | 36.26 |
| COc1cc2ncc(-c3ccccc3)nc2cc1OC [UM0127935:03, Tyrphostin AG 1296] | 8.299 |
| Cc1nc(Nc2ncc(C(=O)Nc3c(C)cccc3Cl)s2)cc(N2CCN(CCO)CC2)n1 [UM0127943:04, Dasatinib (BMS-354825)] | 9.592 |
| Cc1cc(C(=O)NOCCO)c(Nc2ccc(I)cc2F)n(C)c1=O [UM0127946:02, AZD8330] | 1.892 |
